Counter-ions that a name gives are not always drawn. Like-named read-outs stand apart in the source and are kept apart here.
How the values were obtained:
MK-2 = MK-2 (Homo sapiens, UniProt P49137); assay: Determination of MK-2 IC50 (phosphorylation of HSP-peptide, anion exchange resin capture assay); format: biochemical; conditions: additional values are replicate IC50 experiments; mixture of stereoisomers implied unless otherwise noted; read-out: MK-2 Avg. IC50
U937 cells = assay: U937 Cell TNFα Release Assay; format: cell-based, human; conditions: mixture of stereoisomers implied unless otherwise noted
[1] = Homo sapiens, U-937, 4 h, LPS-stimulated differentiated U937 cells, TNFα by ELISA, read-out: TNF Release Assay Avg. IC50
[2] = Homo sapiens, U-937, LPS-stimulated differentiated U937 cells, TNFα by ELISA, read-out: TNF Release Assay Avg. IC50
[3] = Homo sapiens, U-937, 4 h, read-out: TNF Release Assay Avg. IC50, LPS-stimulated differentiated U937 cells, TNFα by ELISA

Chain of MK-2 (P49137 whole entry, species assumed): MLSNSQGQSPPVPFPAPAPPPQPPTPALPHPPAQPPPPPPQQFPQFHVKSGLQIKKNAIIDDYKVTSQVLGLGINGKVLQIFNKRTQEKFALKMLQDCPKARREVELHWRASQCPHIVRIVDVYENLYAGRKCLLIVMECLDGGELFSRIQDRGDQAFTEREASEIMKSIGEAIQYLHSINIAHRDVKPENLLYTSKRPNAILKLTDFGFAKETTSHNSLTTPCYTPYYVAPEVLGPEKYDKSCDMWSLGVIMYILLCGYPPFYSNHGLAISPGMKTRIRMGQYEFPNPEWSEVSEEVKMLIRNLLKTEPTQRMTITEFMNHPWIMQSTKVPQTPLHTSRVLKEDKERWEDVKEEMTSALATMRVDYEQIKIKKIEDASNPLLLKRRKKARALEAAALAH

Row | SMILES | IC50 (MK-2) [µM] | IC50 (U937 cells; [1]) [µM] | IC50 (U937 cells; [2]) [µM] | other results
1 | COc1ccc2[nH]c3c(c2c1)CCNC3c1nnn[nH]1 (stereo not drawn) [Example 143, 6-methoxy-1-(1H-tetraazol-5-yl)-2,3,4,9-tetrahydro-1H-beta-carboline trifluoroacetate hydrate] | 127 | ≥ 100 |  | 
2 | CCOC(=O)COc1ccc2[nH]c3c(c2c1)CCNC3C(=O)O (stereo not drawn) [Example 53, 6-(2-ethoxy-2-oxoethoxy)-2,3,4,9-tetrahydro-1H-beta-carboline-1-carboxylic acid trifluoroacetate hydrate] | 8 | > 100 |  | 
3 | O=C(O)C1NCCc2c1[nH]c1ccc(OCCCCCl)cc21 (stereo not drawn) [Example 79, 6-(4-chlorobutoxy)-2,3,4,9-tetrahydro-1H-beta-carboline-1-carboxylic acid hydrochloride] | 17.4 | > 100 |  | 
4 | COc1ccc2[nH]c3c(c2c1)CC(CCCN)NC3=O (stereo not drawn) [Example 38, 3-(3-aminopropyl)-6-methoxy-2,3,4,9-tetrahydro-1H-beta-carbolin-1-one trifluoroacetate] | 5.5 |  | 36.7 | 
5 | COC(=O)C1NCCc2c1n(C)c1ccc(OC)cc21 (stereo not drawn) [Example 209, methyl 6-methoxy-9-methyl-2,3,4,9-tetrahydro-1H-beta-carboline-1-carboxylate trifluoroacetate] | > 200 | 88.9 |  | 
6 | COc1ccc2[nH]c3c(c2c1)CCCNC3=O [Example 30, 7-methoxy-3,4,5,10-tetrahydroazepino[3,4-b]indol-1(2H)-one hydrochloride] | 3.6 | 2.66 |  | 
7 | COc1ccc2[nH]c3c(c2c1)CCNC3=O [Example 69, 6-methoxy-2,3,4,9-tetrahydro-1H-beta-carbolin-1-one] | 15 |  | 45.7 | 
8 | CCCC1CNC(C(=O)O)c2[nH]c3ccc(OC)cc3c21 (stereo not drawn) [Example 55, 6-methoxy-4-propyl-2,3,4,9-tetrahydro-1H-beta-carboline-1-carboxylic acid] | 8.47 |  |  | IC50 (U937 cells; [3]): > 100 µM
9 | COc1ccc2[nH]c3c(c2c1)CC(C)(C)NC3C(=O)O (stereo not drawn) [Example 54, 6-methoxy-3,3-dimethyl-2,3,4,9-tetrahydro-1H-beta-carboline-1-carboxylic acid] | 8.39 | > 100 |  | 
10 | COC(=O)C(Oc1ccc2[nH]c3c(c2c1)CCNC3C(=O)O)c1ccccc1 (stereo not drawn) [Example 57, 6-(2-methoxy-2-oxo-1-phenylethoxy)-2,3,4,9-tetrahydro-1H-beta-carboline-1-carboxylic acid] | 9.45 | 97.3 |  | 
11 | COc1ccc2c3c([nH]c2c1)C(C(=O)O)NCC3 (stereo not drawn) [Example 34, 7-methoxy-2,3,4,9-tetrahydro-1H-beta-carboline-1-carboxylic acid] | 4.52 | > 100 |  | 
12 | O=C(O)C1NCCc2c1[nH]c1ccc(OCc3cccc(Cl)c3)cc21 (stereo not drawn) [Example 80, 6-[(3-chlorobenzyl)oxy]-2,3,4,9-tetrahydro-1H-beta-carboline-1-carboxylic acid] | 17.9 | 17.8 |  | 
13 | CC(=O)Oc1ccc2[nH]c3c(c2c1)CCNC3C(=O)O (stereo not drawn) [Example 156, 6-(acetyloxy)-2,3,4,9-tetrahydro-1H-beta-carboline-1-carboxylic acid trifluoroacetate] | 167 | 100 | 100 | 
14 | O=C(O)C1NCCc2c1[nH]c1ccc(Br)cc21 (stereo not drawn) [Example 89, 6-bromo-2,3,4,9-tetrahydro-1H-beta-carboline-1-carboxylic acid compound with ethanol(1:1) hydrochloride] | 28.2 |  |  | IC50 (U937 cells; [3]): > 100 µM
15 | COc1ccc2[nH]c3c(c2c1)CCC(C)/C3=N/N (stereo not drawn) [Example 134, 6-methoxy-2-methyl-2,3,4,9-tetrahydro-1H-carbazol-1-one hydrazone] | 108 |  | 7.33 | 
16 | COc1ccc2[nH]c3c(c2c1)C(C(F)(F)F)CNC3C(=O)O (stereo not drawn) [Example 66, 6-methoxy-4-(trifluoromethyl)-2,3,4,9-tetrahydro-1H-beta-carboline-1-carboxylic acid] | 13.8 | 41.3 |  | 
17 | COC(=O)c1cccc2c3c([nH]c12)CCNC3=O [Example 29, methyl 1-oxo-2,3,4,5-tetrahydro-1H-pyrido[4,3-b]indole-6-carboxylate] | 3.52 | 42.4 |  | 
18 | CN(C)C(=O)COc1ccc2[nH]c3c(c2c1)CCNC3C(=O)O (stereo not drawn) [Example 86, 6-[2-(dimethylamino)-2-oxoethoxy]-2,3,4,9-tetrahydro-1H-beta-carboline-1-carboxylic acid hydrochloride] | 27.7 | > 100 |  | 
19 | O=C(O)C1c2[nH]c3ccccc3c2CCN1C(=O)c1ccc(Cl)cc1 (stereo not drawn) [Example 202, 2-(4-chlorobenzeyl)-2,3,4,9-tetrahydro-1H-beta-carboline-1-carboxylic acid] | > 200 | > 100 |  | 
20 | COc1ccc2[nH]c3c(c2c1)CCC(C)/C3=N/O (stereo not drawn) [Example 78, 6-methoxy-2-methyl-2,3,4,9-tetrahydro-1H-carbazol-1-one oxime] | 17 |  | 1.59 | 

Row | SMILES | IC50 (MK-2) [µM] | IC50 (U937 cells; [1]) [µM] | IC50 (U937 cells; [2]) [µM] | other results
21 | COc1ccc2[nH]c3c(=O)n(/N=C/c4ccccc4)c(=O)[nH]c3c2c1 [Example 265, 8-methoxy-3-{[(1E)-phenylmethylidene]amino}-1H-pyrimido[5,4-b]indole-2,4(3H,5H)-dione] | > 200 |  | > 100 | 
22 | CCn1c2c(c3cc(OC)ccc31)CCNC2C(=O)OC (stereo not drawn) [Example 208, methyl 9-ethyl-6-methoxy-2,3,4,9-tetrahydro-1H-beta-carboline-1-carboxylate trifluoroacetate] | > 200 | 100 |  | 
23 | COc1ccc2[nH]c3c(c2c1)CCCCC3=NO [Example 49] | 6.9 |  | 2.89 | 
24 | COC(=O)C1c2[nH]c3ccc(OCc4ccccc4)cc3c2CCN1C (stereo not drawn) [Example 176, methyl 6-(benzyloxy)-2-methyl-2,3,4,9-tetrahydro-1H-beta-carboline-1-carboxylate] | > 200 |  |  | IC50 (U937 cells; [3]): 36.4 µM
25 | COc1ccc2[nH]c3c(c2c1)CC(CCCNCc1ccccc1)NC3=O (stereo not drawn) [Example 62, 3-[3-(benzylamino)propyl]-6-methoxy-2,3,4,9-tetrahydro-1H-beta-carbolin-1-one trifluoroacetate] | 10.5 |  | 24.9 | 
26 | O/N=C1\CCCc2c1[nH]c1ccc(I)cc21 [Example 77, 6-iodo-2,3,4,9-tetrahydro-1H-carbazol-1-one oxime] | 17 |  | 23.2 | 
27 | COC(=O)C1c2[nH]c3ccc(O)cc3c2CCN1C (stereo not drawn) [Example 129, methyl 6-hydroxy-2-methyl-2,3,4,9-tetrahydro-1H-beta-carboline-1-carboxylate] | 98.7 |  |  | IC50 (U937 cells; read-out: TNF Release Assay Avg. IC50, LPS-stimulated differentiated U937 cells, TNFα by ELISA): 0.523 µM
28 | O=C(O)C1NCCc2c1[nH]c1ccc(OCc3ccccc3Cl)cc21 (stereo not drawn) [Example 72, 6-[(2-chlorobenzyl)oxy]-2,3,4,9-tetrahydro-1H-beta-carboline-1-carboxylic acid trifluoroacetate] | 15.5 | 7.68 |  | 
29 | COC(=O)C1NCCc2c1[nH]c1ccc(OCc3ccccc3)cc21 (stereo not drawn) [Example 175, methyl 6-(benzyloxy)-2,3,4,9-tetrahydro-1H-beta-carboline-1-carboxylate hydrochloride] | > 200 |  |  | IC50 (U937 cells; [3]): 26.5 µM
30 | COc1ccc2[nH]c3c(c2c1)CCC/C3=N\O [Example 19, (1E)-6-methoxy-2,3,4,9-tetrahydro-1H-carbazol-1-one oxime] | 2.1 |  | 1.89 | 
31 | COc1ccc2[nH]c3c(c2c1)CCC/C3=N\O (single isomer, unassigned) [Example 75, 6-methoxy-2,3,4,9-tetrahydro-1H-carbazol-1-one oxime] | 16.5 |  | 13.9 | 
32 | COc1ccc2[nH]c3c(c2c1)C(C)(C)CNC3C(=O)O (stereo not drawn) [Example 73, 6-methoxy-4,4-dimethyl-2,3,4,9-tetrahydro-1H-beta-carboline-1-carboxylic acid] | 15.8 | > 100 |  | 
33 | COC(=O)C1NCC(C)c2c1[nH]c1ccc(OC)cc21 (stereo not drawn) [Example 189, methyl 6-methoxy-4-methyl-2,3,4,9-tetrahydro-1H-beta-carboline-1-carboxylate] | > 200 | 53.2 |  | 
34 | COc1ccc2[nH]c3c(c2c1)CC(CCCNCCc1ccccc1)NC3=O (stereo not drawn) [Example 18, trifluoroacetate] | 2.03 |  |  | IC50 (U937 cells; Homo sapiens, U-937, read-out: TNF Release Assay Avg. IC50, LPS-stimulated differentiated U937 cells, TNFα by ELISA): 23.7 µM
35 | COc1ccc2[nH]c3c(c2c1)CCN(C)C3C(N)=O (stereo not drawn) [Example 170, 6-methoxy-2-methyl-2,3,4,9-tetrahydro-1H-beta-carboline-1-carboxamide] | > 200 |  |  | IC50 (U937 cells; [3]): > 100 µM
36 | CCC1CNC(C(=O)O)c2[nH]c3ccc(OC)cc3c21 (stereo not drawn) [Example 21, 4-ethyl-6-methoxy-2,3,4,9-tetrahydro-1H-beta-carboline-1-carboxylic acid hydrochloride] |  |  |  | IC50 (U937 cells; [3]): > 100 µM
37 | COc1ccc2[nH]c3c(c2c1)CC(CO)NC3=O (stereo not drawn) [Example 37, 3-(hydroxymethyl)-6-methoxy-2,3,4,9-tetrahydro-1H-beta-carbolin-1-one] |  |  | > 100 | 
38 | COc1ccc2[nH]c3c(c2c1)C1CCN(C1)C3C(=O)OCc1ccccc1 (stereo not drawn) [Example 31, benzyl 7-methoxy-3,4,5,10-tetrahydro-1H-2,5-methanoazepino[3,4-b]indole-1-carboxylate trifluoroacetate] |  |  |  | IC50 (U937 cells; read-out: TNF Release Assay Avg. IC50, LPS-stimulated differentiated U937 cells, TNFα by ELISA, trifluoroacetate): 46.2 µM
39 | COc1cccc2[nH]c3c(c12)CCNC3C(=O)O (stereo not drawn) [Example 103, 5-methoxy-2,3,4,9-tetrahydro-1H-beta-carboline-1-carboxylic acid hydrochloride] |  |  |  | IC50 (U937 cells; [3]): 92.6 µM

From patent publication US20050137220A1 (Pharmacia Corporation, priority 2003, published 2005)
